Measurements reported in ChEMBL document CHEMBL5505977, “Discovery of novel pyrrolo[2,3-d]pyrimidines as potent menin-mixed lineage leukemia interaction inhibitors” (Eur J Med Chem, 2024).
The source made the active and inactive calls. No cut-off for these calls is given here.

Key:
HL-60 = test: Antiproliferative activity against human HL-60 cells incubated for 72 hrs by MTT assay; type: functional, cell-based; settings: HL-60, 72 h
MV4-11 [1] = test: Induction of apoptosis in human MV4-11 cells assessed as viable cells at 1 uM incubated for 24 hrs by FITC Annexin-V/PI staining based flow cytometry analysis (reference value: 94.27%); type: functional; settings: read-out: Activity
MV4-11 [2] = test: Induction of apoptosis in human MV4-11 cells assessed as early apoptotic cells at 1 uM incubated for 24 hrs by FITC Annexin-V/PI staining based flow cytometry analysis (reference value: 2.68%); type: functional
MV4-11 [3] = test: Induction of apoptosis in human MV4-11 cells assessed as late apoptotic cells at 1 uM incubated for 24 hrs by FITC Annexin-V/PI staining based flow cytometry analysis (reference value: 3%); type: functional
MV4-11 [4] = test: Induction of apoptosis in human MV4-11 cells assessed as necrotic cells at 1 uM incubated for 24 hrs by FITC Annexin-V/PI staining based flow cytometry analysis (reference value: 0.04%); type: functional
MV4-11 [5] = test: Induction of apoptosis in human MV4-11 cells assessed as viable cells at 10 uM incubated for 24 hrs by FITC Annexin-V/PI staining based flow cytometry analysis (reference value: 94.27%); type: functional; settings: read-out: Activity
MV4-11 [6] = test: Induction of apoptosis in human MV4-11 cells assessed as early apoptotic cells at 10 uM incubated for 24 hrs by FITC Annexin-V/PI staining based flow cytometry analysis (reference value: 2.68%); type: functional
MV4-11 [7] = test: Induction of apoptosis in human MV4-11 cells assessed as late apoptotic cells at 10 uM incubated for 24 hrs by FITC Annexin-V/PI staining based flow cytometry analysis (reference value: 3%); type: functional
MV4-11 [8] = test: Induction of apoptosis in human MV4-11 cells assessed as necrotic cells at 10 uM incubated for 24 hrs by FITC Annexin-V/PI staining based flow cytometry analysis (reference value: 0.04%); type: functional
MV4-11 [9] = test: Induction of cell cycle arrest in human MV4-11 cells assessed as accumulation of cells at G0/G1 phase at 10 uM incubated for 24 hrs by PI/RNase staining based flow cytometry analysis; type: functional
MV4-11 [10] = test: Effect on cell differentiation in human MV4-11 cells assessed as decrease in HOXA9 expression level incubated for 48 hrs by qPCR analysis; type: functional, cell-based
MV4-11 [11] = test: Effect on cell differentiation in human MV4-11 cells assessed as decrease in HOXA9 expression level at 5 uM by qPCR analysis; type: functional, cell-based; settings: time 24-48 hrs, TDE = time-dependent effect
MV4-11 [12] = test: Effect on cell differentiation in human MV4-11 cells assessed as decrease in MEIS1 expression level incubated for 48 hrs by qPCR analysis; type: functional, cell-based
MV4-11 [13] = test: Effect on cell differentiation in human MV4-11 cells assessed as decrease in MEIS1 expression level at 5 uM by qPCR analysis; type: functional, cell-based; settings: time 24-48 hrs, TDE = time-dependent effect
MV4-11 [14] = test: Effect on cell differentiation in human MV4-11 cells assessed as assessed as increase in CD11b protein expression at M2-1 at 1 uM incubated for 7 days by flow cytometry analysis (reference value: 86.12%); type: functional; settings: time 7 day
MV4-11 [15] = test: Effect on cell differentiation in human MV4-11 cells assessed as assessed as increase in CD11b protein expression at M2-2 at 1 uM incubated for 7 days by flow cytometry analysis (reference value: 13.86%); type: functional; settings: time 7 day
MV4-11 [16] = test: Effect on cell differentiation in human MV4-11 cells assessed as assessed as increase in CD11b protein expression at M2-1 at 10 uM incubated for 7 days by flow cytometry analysis (reference value: 86.12%); type: functional; settings: time 7 day
MV4-11 [17] = test: Effect on cell differentiation in human MV4-11 cells assessed as assessed as increase in CD11b protein expression at M2-2 at 10 uM incubated for 7 days by flow cytometry analysis (reference value: 13.86%); type: functional; settings: time 7 day
Menin = biological target: T1, Menin (Homo sapiens, UniProt O00255); test: Binding affinity to menin (unknown origin) incubated for 1 hr by fluorescence polarization assay
T1 sequence (O00255 whole entry): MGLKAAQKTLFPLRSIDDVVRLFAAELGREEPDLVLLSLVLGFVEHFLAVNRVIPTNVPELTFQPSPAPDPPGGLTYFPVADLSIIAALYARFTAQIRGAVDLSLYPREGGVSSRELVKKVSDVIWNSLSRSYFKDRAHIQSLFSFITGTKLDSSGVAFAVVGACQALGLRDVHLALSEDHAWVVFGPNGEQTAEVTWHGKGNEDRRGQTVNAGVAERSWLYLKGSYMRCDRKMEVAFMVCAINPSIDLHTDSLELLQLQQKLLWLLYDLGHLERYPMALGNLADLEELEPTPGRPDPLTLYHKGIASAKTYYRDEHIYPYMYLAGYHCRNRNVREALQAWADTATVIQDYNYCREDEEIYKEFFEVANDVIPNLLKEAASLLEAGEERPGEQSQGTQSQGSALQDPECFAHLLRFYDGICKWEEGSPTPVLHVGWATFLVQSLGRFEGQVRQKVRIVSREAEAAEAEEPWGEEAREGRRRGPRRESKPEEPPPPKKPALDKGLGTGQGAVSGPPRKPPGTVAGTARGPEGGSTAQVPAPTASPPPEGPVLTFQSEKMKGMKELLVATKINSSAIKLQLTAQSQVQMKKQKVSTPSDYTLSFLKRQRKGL

MV4-11 [18] = test: cells; settings: Homo sapiens, MV4-11, 72 h
Description: Antiproliferative activity against human MV4-11 cells incubated for 72 hrs by MTT assay

[19] = biological target: Menin/Histone-lysine N-methyltransferase MLL (Homo sapiens, UniProt O00255); test: Inhibition of human menin-MLL (unknown origin) protein-protein interaction incubated for 0.5 to 4 hrs by TR-FRET assay
Menin/Histone-lysine N-methyltransferase MLL, sequence (Q03164 1-2718 partner limits assumed, one chain of several): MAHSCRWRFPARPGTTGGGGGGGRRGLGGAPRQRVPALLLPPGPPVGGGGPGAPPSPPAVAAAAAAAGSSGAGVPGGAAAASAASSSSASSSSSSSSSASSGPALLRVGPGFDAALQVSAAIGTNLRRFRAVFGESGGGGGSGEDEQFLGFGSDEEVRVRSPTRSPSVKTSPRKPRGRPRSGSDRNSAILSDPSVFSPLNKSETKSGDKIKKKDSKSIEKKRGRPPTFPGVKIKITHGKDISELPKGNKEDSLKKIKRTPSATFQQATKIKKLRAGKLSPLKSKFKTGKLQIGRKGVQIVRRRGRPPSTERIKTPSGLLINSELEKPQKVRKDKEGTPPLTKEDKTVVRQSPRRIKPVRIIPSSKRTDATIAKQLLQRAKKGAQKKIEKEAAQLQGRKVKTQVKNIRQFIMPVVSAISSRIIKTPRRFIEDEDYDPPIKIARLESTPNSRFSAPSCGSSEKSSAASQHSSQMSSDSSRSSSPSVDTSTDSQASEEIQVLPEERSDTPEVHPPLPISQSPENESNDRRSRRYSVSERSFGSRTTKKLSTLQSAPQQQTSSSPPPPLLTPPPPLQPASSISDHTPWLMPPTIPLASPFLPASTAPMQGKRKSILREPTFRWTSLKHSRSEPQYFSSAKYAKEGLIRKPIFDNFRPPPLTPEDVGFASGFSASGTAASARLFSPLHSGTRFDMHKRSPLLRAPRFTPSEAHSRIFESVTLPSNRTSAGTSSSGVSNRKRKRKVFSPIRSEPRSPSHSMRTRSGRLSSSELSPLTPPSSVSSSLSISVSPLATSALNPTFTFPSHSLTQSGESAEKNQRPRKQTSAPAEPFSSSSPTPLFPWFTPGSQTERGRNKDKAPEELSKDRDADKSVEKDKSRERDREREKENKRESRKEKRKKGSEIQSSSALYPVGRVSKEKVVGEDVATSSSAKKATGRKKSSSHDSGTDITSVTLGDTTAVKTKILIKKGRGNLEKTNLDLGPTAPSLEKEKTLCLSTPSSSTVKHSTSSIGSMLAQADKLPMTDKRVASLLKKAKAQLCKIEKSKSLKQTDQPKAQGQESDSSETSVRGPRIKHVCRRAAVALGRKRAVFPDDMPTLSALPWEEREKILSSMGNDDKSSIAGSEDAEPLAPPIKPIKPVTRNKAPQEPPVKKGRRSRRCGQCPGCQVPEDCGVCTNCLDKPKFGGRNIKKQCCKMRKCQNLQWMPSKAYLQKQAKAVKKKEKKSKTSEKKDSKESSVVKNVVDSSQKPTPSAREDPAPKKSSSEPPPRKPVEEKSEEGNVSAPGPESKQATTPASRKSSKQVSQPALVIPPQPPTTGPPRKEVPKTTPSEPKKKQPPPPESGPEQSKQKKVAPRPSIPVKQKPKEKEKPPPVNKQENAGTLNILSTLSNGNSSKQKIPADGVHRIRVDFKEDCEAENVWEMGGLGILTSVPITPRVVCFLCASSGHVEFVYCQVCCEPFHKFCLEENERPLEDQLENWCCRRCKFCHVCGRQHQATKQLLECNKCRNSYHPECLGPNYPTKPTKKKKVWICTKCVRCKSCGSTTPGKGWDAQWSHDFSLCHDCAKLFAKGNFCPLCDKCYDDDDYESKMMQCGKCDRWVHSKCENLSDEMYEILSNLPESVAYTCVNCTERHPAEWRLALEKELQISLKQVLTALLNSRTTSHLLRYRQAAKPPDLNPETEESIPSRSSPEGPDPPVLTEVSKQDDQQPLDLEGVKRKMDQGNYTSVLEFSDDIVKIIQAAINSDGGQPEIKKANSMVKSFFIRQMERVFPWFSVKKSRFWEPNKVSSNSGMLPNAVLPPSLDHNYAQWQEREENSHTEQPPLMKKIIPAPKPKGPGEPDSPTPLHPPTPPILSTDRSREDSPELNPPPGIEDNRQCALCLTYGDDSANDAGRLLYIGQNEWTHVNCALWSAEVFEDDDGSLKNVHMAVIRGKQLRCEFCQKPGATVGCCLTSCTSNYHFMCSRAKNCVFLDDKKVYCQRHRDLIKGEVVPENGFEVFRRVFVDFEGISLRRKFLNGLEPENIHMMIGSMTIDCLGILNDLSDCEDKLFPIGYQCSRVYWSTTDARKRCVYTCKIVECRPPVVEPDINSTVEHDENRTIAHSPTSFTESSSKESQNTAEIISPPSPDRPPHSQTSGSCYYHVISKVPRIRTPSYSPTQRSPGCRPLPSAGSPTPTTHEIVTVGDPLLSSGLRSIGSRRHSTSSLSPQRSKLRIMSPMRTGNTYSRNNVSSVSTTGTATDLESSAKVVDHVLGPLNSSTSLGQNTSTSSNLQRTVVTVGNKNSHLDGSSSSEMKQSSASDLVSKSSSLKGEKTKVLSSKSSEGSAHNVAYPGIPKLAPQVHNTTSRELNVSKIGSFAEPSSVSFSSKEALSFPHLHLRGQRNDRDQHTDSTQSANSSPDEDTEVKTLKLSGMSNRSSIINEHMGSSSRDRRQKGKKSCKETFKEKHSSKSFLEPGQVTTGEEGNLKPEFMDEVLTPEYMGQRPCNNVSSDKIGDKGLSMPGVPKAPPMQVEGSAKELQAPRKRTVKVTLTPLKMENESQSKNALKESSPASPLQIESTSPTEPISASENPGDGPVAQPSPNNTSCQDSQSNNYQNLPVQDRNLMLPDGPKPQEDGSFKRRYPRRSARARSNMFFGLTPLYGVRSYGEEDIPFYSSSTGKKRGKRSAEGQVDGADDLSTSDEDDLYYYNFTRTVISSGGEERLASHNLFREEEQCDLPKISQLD
Menin/Histone-lysine N-methyltransferase MLL, sequence (Q03164 2719-3969 partner limits assumed, one chain of several): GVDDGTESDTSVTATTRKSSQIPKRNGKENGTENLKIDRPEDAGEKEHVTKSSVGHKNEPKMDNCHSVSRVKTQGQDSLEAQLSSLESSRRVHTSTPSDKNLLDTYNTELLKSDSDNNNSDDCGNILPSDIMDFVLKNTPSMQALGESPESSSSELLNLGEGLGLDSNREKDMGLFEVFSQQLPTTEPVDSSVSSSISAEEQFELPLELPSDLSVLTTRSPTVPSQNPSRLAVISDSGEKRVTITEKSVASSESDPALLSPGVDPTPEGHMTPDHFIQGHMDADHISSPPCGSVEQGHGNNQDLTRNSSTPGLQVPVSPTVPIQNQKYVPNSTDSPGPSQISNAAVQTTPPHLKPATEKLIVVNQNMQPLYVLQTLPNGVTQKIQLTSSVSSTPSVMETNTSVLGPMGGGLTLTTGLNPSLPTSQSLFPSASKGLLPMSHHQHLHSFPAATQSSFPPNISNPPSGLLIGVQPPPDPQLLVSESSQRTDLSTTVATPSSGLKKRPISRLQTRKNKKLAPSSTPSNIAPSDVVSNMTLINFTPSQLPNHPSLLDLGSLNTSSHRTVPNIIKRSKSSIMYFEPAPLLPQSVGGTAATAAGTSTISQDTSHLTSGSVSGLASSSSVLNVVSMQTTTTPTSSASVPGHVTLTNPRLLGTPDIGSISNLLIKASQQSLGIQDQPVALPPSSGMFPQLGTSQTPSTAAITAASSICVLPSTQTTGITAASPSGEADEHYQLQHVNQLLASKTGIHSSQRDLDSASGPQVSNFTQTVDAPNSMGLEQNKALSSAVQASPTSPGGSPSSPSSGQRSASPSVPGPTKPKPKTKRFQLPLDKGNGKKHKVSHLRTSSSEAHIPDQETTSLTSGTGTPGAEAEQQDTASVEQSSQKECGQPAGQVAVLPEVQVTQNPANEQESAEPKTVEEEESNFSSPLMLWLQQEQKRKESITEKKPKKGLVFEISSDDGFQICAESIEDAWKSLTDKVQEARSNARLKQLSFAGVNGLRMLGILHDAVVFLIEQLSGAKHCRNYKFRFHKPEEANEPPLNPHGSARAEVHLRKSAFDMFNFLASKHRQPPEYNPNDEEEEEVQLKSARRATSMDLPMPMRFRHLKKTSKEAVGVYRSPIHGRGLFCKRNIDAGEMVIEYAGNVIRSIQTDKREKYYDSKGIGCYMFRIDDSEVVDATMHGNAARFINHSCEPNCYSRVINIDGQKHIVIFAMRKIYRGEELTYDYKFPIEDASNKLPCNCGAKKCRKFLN

CCCc1cc2c(N3CCN(C4=NCC(C)(C)S4)CC3)ncnc2s1
IC50 (HL-60): > 10000 nM
viability at 1 µM (MV4-11 [1]): 93.8%
Activity (MV4-11 [2]): 3.12%
Activity (MV4-11 [3]): 3.02%
Activity (MV4-11 [4]): 0.09%
viability at 10 µM (MV4-11 [5]): 68%
Activity (MV4-11 [6]): 13.22%
Activity (MV4-11 [7]): 18.52%
Activity (MV4-11 [8]): 0.19%
Activity (MV4-11 [9]): Active
Activity (MV4-11 [10]): Dose-Dependent Effect
Activity (MV4-11 [11]): Tde
Activity (MV4-11 [12]): Dose-Dependent Effect
Activity (MV4-11 [13]): Tde
Activity (MV4-11 [14]): 79%
Activity (MV4-11 [15]): 21%
Activity (MV4-11 [16]): 47.84%
Activity (MV4-11 [17]): 52.13%

Nc1ncnc2c1c(-c1ccc(F)cc1)cn2C1CCN(CC2CN(c3ccc(S(=O)(=O)C4CCC4)cc3)C2)CC1
IC50 (Menin): 530 nM
IC50 (HL-60): 8800 nM
IC50 (MV4-11 [18]): 1690 nM

Nc1ncnc2c1c(-c1ccc(F)cc1)cn2C1CCN(CC2CN(c3ccc(S(=O)(=O)C4CC4)cc3)C2)CC1
IC50 (Menin): 470 nM
IC50 (HL-60): 7500 nM
IC50 (MV4-11 [18]): 1260 nM

Cc1c(CN2CCC3(CC2)CN(c2ncnc4sc(CC(F)(F)F)cc24)C3)ccc2c1cc(C#N)n2CC(N)=O
IC50 [19]: 8 nM

CN1CCN(c2ncnc3c2ccn3C2CCN(CC3CN(c4ccc(C#N)cc4)C3)CC2)CC1
IC50 (Menin): > 10000 nM
IC50 (HL-60): > 10000 nM
IC50 (MV4-11 [18]): > 10000 nM
